Test results taken from US9517265B2, “Methods for the prevention and/or treatment of memory impairment” (The Governing Council of the University of Toronto, priority 2010, dated 2016).
Entries after “also recorded” stand apart in the source; their conditions may differ.

Columns and labels:
α5GABAA receptors [1] = test: In vivo receptor occupancy of L-655,708 (literature); details: 0.7 mg/kg intraperitoneal, 30 min after injection
α5GABAA receptors [2] = molecular target: T1, α5GABAA receptors (Homo sapiens, UniProt P18507+P31644); details: cited from earlier work
T1 sequence (P31644 32-462): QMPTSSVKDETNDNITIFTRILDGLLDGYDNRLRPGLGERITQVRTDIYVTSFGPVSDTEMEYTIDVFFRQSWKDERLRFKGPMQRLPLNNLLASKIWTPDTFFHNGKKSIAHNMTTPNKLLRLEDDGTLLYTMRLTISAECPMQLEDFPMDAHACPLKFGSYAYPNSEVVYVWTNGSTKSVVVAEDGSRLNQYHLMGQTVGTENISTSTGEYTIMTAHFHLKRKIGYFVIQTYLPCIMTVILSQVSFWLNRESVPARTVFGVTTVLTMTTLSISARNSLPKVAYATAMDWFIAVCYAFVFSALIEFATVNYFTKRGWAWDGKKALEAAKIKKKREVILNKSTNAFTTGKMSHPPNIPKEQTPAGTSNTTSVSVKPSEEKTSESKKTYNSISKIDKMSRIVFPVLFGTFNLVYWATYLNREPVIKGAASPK
T1 sequence (P28472 26-473 partner): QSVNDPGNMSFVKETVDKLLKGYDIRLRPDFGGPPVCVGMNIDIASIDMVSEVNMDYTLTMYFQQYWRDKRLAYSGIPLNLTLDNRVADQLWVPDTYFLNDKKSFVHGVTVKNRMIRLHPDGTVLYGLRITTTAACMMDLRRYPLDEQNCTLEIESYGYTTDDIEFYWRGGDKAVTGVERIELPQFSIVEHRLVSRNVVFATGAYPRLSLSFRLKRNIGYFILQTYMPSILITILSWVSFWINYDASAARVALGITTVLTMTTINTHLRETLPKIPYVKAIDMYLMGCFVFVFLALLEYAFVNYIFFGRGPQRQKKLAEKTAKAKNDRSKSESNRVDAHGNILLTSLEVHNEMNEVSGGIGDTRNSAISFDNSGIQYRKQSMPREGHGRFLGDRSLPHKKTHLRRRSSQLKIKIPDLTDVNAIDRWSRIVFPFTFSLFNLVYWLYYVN
T1 sequence (P18507 40-467 limits assumed): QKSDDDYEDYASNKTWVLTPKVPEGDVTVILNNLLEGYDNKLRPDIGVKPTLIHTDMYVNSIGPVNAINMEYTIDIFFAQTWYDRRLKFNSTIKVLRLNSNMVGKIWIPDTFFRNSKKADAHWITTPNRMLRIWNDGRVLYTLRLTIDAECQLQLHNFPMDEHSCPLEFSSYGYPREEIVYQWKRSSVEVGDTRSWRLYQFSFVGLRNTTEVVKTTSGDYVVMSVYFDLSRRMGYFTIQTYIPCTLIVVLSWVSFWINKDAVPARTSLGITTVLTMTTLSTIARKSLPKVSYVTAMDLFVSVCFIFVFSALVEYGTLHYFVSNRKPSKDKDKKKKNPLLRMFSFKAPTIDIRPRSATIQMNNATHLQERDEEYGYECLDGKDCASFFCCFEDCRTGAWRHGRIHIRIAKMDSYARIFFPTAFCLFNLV

α5GABAARs [3] = molecular target: T2, α5GABAARs (Mus musculus, UniProt P22723+Q8BHJ7); test: Fear conditioning after IL-1β or LPS injection; assay type: in vivo, mice
Description: Pavlovian fear-conditioning tasks were used for behavioral analysis^29. LPS (125 μg kg^−1, i.p., with physiological saline as the vehicle control) or IL-1β (1 μg kg^−1, i.p., with 0.1% bovine serum albumin as the vehicle control) was injected into male 3- to 4-month-old WT and Gabra5−/− mice 3 h before conditioning. The intensity of the electric footshock was 0.5 mA. For some mice, the inverse agonist L-655,708 (0.35 or 0.5 mg kg^−1, i.p.) or vehicle control (10% DMSO, i.p.) was injected 30 min before training. The movement of the mouse was monitored. The percentage of time that each mouse spent in a freezing position was determined using FreezeView software (Version 2.26, Actimetrics Inc, Wilmette, Ill., USA).
We have determined that IL-1β-induced impairment of contextual fear memory can be reversed by pharmacological inhibition of α5GABAA receptors by the inverse agonist MRK-016. Fear conditioning was performed 3 h after injection of IL-1β (1 μg kg^−1, i.p.) in both wild-type (WT) and α5GABAA receptor knock out (Gabra5−/−) mice. Mice were trained to associate a context (contextual fear) and a tone (cued fear) with an aversive electric footshock. 24 h after conditioning each mouse was placed in the training context, and contextual fear memory was measured as the percentage of time spent freezing. Cued fear memory was measured 48 h after training as the percentage of time spent freezing to the conditioned auditory tone in a novel context.

[4] = cited from earlier work
α5GABAA receptors [5] = details: 1 mg/kg intraperitoneal; cited from earlier work
α5GABAARs [6] = molecular target: T2, α5GABAARs; test: Tonic inhibitory current, whole cell voltage-clamp in cultured hippocampal neurons; assay type: cell-based, mice; parameters: endogenous in cells; host or cells: primary embryonic mouse hippocampal neurons, alone or co-cultured with cortical microglia
[7] = tested on: α1, α2 and α3 subunit-containing GABAA receptors; details: 1 mg/kg intraperitoneal; cited from earlier work
[8] = Isoflurane concentration in brain tissue (gas chromatography) and in expired gas; details: after removal from the chamber
Text: Following a designated recovery time, mice were sacrificed by cervical dislocation. The brains were rapidly removed at room temperature and placed in a gas-tight syringe containing polytetrafluoroethylene beads. The whole brain was immediately crushed with two strokes of the plunger and the syringe was then sealed. […] The methods are similar to that described for measurement of inhaled anesthetics in blood.^26

[9] = cited from earlier work; remark: listed apart in the source

T2 sequence (Q8BHJ7 32-463 limits assumed): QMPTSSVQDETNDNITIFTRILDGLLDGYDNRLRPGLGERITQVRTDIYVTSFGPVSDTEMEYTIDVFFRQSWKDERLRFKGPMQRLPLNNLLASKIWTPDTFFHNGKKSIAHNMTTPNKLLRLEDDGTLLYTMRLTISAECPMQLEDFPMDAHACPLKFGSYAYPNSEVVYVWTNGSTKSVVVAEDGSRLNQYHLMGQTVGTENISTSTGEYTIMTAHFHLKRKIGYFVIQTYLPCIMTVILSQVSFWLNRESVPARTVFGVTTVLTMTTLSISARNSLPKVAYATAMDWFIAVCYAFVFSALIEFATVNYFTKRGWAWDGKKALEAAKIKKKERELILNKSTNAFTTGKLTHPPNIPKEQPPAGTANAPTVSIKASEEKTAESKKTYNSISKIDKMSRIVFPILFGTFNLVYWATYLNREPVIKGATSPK
T2 sequence (P63080 26-473 partner): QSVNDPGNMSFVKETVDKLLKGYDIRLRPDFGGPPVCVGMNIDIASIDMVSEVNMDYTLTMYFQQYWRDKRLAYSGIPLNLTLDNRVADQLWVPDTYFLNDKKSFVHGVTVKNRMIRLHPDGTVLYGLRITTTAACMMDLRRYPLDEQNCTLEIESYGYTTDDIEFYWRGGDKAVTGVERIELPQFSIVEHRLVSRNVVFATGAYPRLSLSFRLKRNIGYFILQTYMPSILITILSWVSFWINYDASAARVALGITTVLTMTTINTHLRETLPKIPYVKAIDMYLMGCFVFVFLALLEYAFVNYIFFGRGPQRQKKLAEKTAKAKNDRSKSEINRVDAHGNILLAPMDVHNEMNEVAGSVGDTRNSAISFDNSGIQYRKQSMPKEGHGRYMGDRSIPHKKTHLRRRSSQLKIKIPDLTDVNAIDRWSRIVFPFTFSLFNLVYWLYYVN
T2 sequence (P22723 39-474): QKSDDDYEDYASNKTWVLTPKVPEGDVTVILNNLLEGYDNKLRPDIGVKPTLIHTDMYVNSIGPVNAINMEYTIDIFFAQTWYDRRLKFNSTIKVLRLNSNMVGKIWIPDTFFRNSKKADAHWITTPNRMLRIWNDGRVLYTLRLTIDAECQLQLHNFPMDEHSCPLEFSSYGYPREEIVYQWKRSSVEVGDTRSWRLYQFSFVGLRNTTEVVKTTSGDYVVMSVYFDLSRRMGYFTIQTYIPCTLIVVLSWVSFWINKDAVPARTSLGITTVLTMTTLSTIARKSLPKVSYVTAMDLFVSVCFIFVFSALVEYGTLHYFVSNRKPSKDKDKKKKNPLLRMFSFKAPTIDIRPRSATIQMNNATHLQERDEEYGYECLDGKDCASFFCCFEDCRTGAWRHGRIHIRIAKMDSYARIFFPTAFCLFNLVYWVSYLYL

CCOC(=O)c1ncn2c1[C@@H]1CCCN1C(=O)c1cc(OC)ccc1-2 [L-655,708]
estimated occupancy of α5GABAA receptors in vivo (α5GABAA receptors [1]): 60-70%
affinity for α5GABAA receptors relative to other receptor subtypes (α5GABAA receptors [2]): 50 fold
preference for α5GABAA receptors over α2 subunit-containing GABAA receptors (α5GABAA receptors [2]): 61 fold
preference for α5GABAA receptors over α3 subunit-containing GABAA receptors (α5GABAA receptors [2]): 54 fold
preference for α5GABAA receptors over α1 subunit-containing GABAA receptors (α5GABAA receptors [2]; in vitro electrophysiological and biochemical studies): 107 fold
contextual fear memory, WT mice (in words) (α5GABAARs [3]; IL-1β 1 μg kg^−1 i.p. or LPS 125 μg kg^−1 i.p. 3 h before conditioning, inverse agonist co-administered): attenuated the IL-1β-induced contextual fear memory deficits in WT mice; also recorded: restored freezing scores for contextual fear memory to control values
cued fear memory to a conditioned tone stimulus (in words) (α5GABAARs [3]; mouse, in vivo): did not affect freezing to a conditioned tone stimulus
half-life ([4]; rat, in vivo): 30 min
time of peak ([4]; rat, in vivo): 0.25 h
brain versus plasma concentrations (in words) ([4]; subcutaneous injection): concentrations in the brain mimic those in the plasma
receptor occupancy of the α5GABAA receptor (α5GABAA receptors [5]): 64%
inhibition at 0.02 µM (α5GABAARs [6]; L-655,708 20 nM, n=11, read-out: inhibition of the IL-1β-enhanced tonic current): 66.1%
IL-1β-modulated tonic current (α5GABAARs [6]; L-655,708 20 nM, n=12): 69.2±4.4 % of control
effect on the tonic current (in words) (α5GABAARs [6]; cultured hippocampal neurons): the tonic current is selectively inhibited; also recorded: reverses enhancement of the tonic current by the inhaled anaesthetics isoflurane and desflurane; also recorded: reverses the sevoflurane-induced increase in tonic inhibitory conductance generated by GABAA receptors
occupancy of α1, α2 and α3 subunit-containing GABAA receptors [7]: 18%

FC(F)OC(Cl)C(F)(F)F (stereo not shown) [isoflurane]
time until isoflurane in expired gas is undetectable [8]: ≤ 7 min
fraction that had left the brain ([9]; after 270 min of elimination following isoflurane 1.3% for 90 min): 96%
elimination, initial fast component ([9]; humans): 5 min
elimination, slower component ([9]; humans): 15 min
fraction metabolized ([9]; in vivo): less than 0.2%
fraction recovered in expired gas ([9]; in vivo): ~100%
fraction eliminated from the brain ([9]; within 270 min, laboratory animals): 97%
